Measurements: patent US10987317B2, “Inhibition of glutaminase C” (Cornell University, priority 2009, dated 2021)

How the values were obtained:
[1] = test system: NIH 3T3 cells expressing H-Ras(G12V); test: H-Ras(G12V)-induced transformation (focus formation, growth in low serum); assay type: cell-based; conditions: focus formation in NIH 3T3 cells or growth in low serum
Description: FIGS. 5A-C illustrate comparative abilities of 968 and other benzo[a]phenanthrldinones to inhibit the transforming activity of oncogenic Dbl and H-Ras. […] Histograms show the relative levels of Dbl-induced focus formation for the different treatments, compared to Dbl-induced focus formation measured in the presence of DMSO (i.e. solvent control). Data represent the average of 3 experiments (mean±s.d.). […] Histograms show the relative levels of Ras(G12V)-induced focus formation measured for the different treatments, compared to Ras(G12V)-induced focus formation measured in the presence of DMSO (solvent control). Data represent the average of 3 experiments (mean±s.d.). FIG. 5C NIH 3T3 cells stably expressing H-Ras(G12V) that are cultured in DMEM supplemented with 1% calf serum, with the indicated amounts of 968. After 6 days, cells are trypsinized and counted. 100% represents the number of cells counted in the absence of 968, i.e. 26×10^4 cells. Data represent the average of 3 experiments (mean±s.d.).

SKBR3 cells = test: Breast cancer cell soft agar colony formation and growth; assay type: cell-based, human
Description: FIGS. 2A-G illustrate effects of 968 on the transforming activity of constitutively active Rho GTPases and human breast cancer cells. […] Cells are scored after 14 days and plotted as the percentage of the total number of colonies greater than […] in diameter. Data represent the average of 3 experiments (±s.d.). […] Data represent the average of 3 experiments (±s.d.). […] Data represent the average of 3 experiments (±s.d.). […] After 24 hours at 37° C. the migratory cells are fixed, stained with GIEMSA, and counted. Data represent the average of 3 experiments (±s.d.). […] Data represent the average of 3 experiments (±s.d.). […] Data represent the average of 3 experiments (±s.d.). […] Data represent the average of 3 experiments (±s.d.).
(§1) 100%=620 moles of glutamine hydrolyzed per minute per mole of enzyme. Data represent the average of 3 experiments (±s.d.). […] Following precipitation of the beads and re-suspension, the samples are analyzed by Western blotting with anti-V5 antibody. […] Data represent the average of 3 experiments (±s.d.). […] Data represent the average of 3 experiments (±s.d.). […] Data represent the average of 3 experiments (±s.d.). FIG. 3E NIH 3T3 cells transiently expressing Dbl are assayed for focus formation in the presence of 10 μM 968 alone or together with […] dimethyl α-ketoglutarate. […] 100%=680 nM glutamine hydrolyzed per minute per 10^5 cells. Data are the average of 3 experiments (=s.d.). […] 100%=750 nM glutamine hydrolyzed per minute per 10^5 cells. Data represent the average of 3 experiments (±s.d.).

[2] = target: T1, E. coli-expressed mouse ortholog of human GAC (Mus musculus, UniProt D3Z7P3); test: Recombinant glutaminase activity assay; assay type: biochemical
T1 construct: A plasmid encoding mouse GAC (residues 128-603) was cloned into the pET28a vector; His-tag (N, cleaved yes); made in house; host or cells: E. coli (pET28a)
T1 sequence (D3Z7P3 128-603 isoform D3Z7P3-2): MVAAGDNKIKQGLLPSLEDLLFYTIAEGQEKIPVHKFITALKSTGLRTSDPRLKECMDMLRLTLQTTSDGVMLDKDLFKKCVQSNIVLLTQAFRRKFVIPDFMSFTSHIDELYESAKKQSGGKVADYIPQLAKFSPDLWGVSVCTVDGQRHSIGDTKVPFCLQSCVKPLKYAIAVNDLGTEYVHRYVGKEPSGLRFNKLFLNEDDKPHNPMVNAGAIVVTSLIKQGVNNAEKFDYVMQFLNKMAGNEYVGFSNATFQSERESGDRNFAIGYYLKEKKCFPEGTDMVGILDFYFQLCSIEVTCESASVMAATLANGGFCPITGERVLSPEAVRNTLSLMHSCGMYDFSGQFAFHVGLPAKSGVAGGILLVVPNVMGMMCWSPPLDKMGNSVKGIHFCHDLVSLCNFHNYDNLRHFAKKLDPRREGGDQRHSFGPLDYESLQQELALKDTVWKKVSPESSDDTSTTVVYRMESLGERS
Description: as §1
The activity of the E. coli-expressed recombinant mouse ortholog of human GAC are assayed in the presence of 0 (●), 10 (∇) or 20 (▪) μM 968 and inorganic phosphate in the form of dipotassium hydrogen phosphate. […] The data are plotted as GA activity as function of varying concentrations of glutamine or inorganic phosphate. The data are the average of 3 experiments and are plotted as mean±SEM.
Glutaminase activity assays were performed on recombinant enzyme as previously described (Kenny et al., “Bacterial Expression, Purification and Characterization of Rat Kidney-Type Mitochondrial Glutaminasc,” Protein Expr. Purif 31:140-148 (2003), which is hereby incorporated by reference in its entirety). A plasmid encoding mouse GAC (residues 128-603) was cloned into the pET28a vector and the protein was expressed with an N-terminal histidine (His)-tag. The tag was cleaved using thrombin and the protein was further purified by anion-exchange and gel-filtration chromatography. […] The reaction mixture was incubated at room temperature for 45 minutes and the absorbance at 340 nm was recorded for each sample against a water blank. The absorbance of the sample with just the cocktail mixture was subtracted from each reading to calculate the activity of the enzyme.

In the case of `CN(C)c1ccc(C2Nc3ccc4ccccc4c3C3=C2C(=O)CC(C)(C)C3)cc1Br` (stereo not drawn) [Compound 968, 5-[3-bromo-4-(dimethylamino)phenyl]-2,2-dimethyl-2,3,5,6-tetrahydrobenzo[a]], the “potency on Dbl-induced transformation compared to oncogenic H-Ras” value [1] is reported as “more potent inhibitor of Dbl-induced transformation”, the “colony formation in soft agar” value (SKBR3 cells; 10 μM) is reported as “inhibits” and the “growth to high density and in low serum” value (SKBR3 cells; 10 μM) is reported as “inhibits”. The “reversal of 968-inhibition by cell-permeable analog of α-ketoglutarate” value (SKBR3 cells; growth in low serum, 10 μM 968 with 7 μM dimethyl α-ketoglutarate) was “circumvented”, the “inhibition of enzymatic activity of purified GAC” value [2] was “inhibits” and the “mode of inhibition versus glutamine and inorganic phosphate” value ([2]; 0, 10 or 20 μM) was “neither competitive versus substrate (glutamine) nor inorganic phosphate”.
